What follows are compounds tested against T1, full-length human PKCι (Homo sapiens, UniProt P41743) (assay: PKCι IC50 IMAP assay, full-length PKCι at 150 μM ATP). Conditions: read-out: IC50 in IMAP assay against full length PKCi at 150 μM ATP.
T1 construct: Recombinant, full-length human PKCι expressed in Sf21 insect cells is also commercially available; purchased; host or cells: Sf21 insect cells
T1 sequence (P41743 1-596): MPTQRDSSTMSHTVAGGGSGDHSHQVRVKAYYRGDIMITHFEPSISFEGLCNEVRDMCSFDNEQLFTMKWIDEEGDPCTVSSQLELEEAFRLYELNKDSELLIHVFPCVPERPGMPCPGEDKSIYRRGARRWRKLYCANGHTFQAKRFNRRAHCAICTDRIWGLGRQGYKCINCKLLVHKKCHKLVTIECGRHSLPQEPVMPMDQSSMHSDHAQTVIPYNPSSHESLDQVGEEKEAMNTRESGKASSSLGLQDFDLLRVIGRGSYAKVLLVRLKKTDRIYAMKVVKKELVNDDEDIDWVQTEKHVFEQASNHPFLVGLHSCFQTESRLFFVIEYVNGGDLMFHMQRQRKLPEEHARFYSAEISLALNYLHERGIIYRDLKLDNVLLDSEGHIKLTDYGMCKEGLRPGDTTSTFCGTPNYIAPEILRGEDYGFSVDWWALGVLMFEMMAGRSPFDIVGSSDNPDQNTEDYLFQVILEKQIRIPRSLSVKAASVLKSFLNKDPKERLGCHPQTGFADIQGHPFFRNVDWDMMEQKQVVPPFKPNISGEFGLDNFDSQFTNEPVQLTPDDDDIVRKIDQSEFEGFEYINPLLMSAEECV
Format: biochemical
Method in brief: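 Full-length human PKCι from Sf21 cells, typically 15 pM, with 100 nM 5FAM-PKCε pseudosubstrate peptide and 150 μM ATP (5× apparent KM), 60 min at room temperature, 4% DMSO. IMAP fluorescence polarisation read-out; inhibition normalised to no-compound and no-enzyme controls, IC50 from curve fit.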

Row | IC50 | Compound
1 | < 100 nM | c1cc(-c2nc(N3CCNCC3)c3c(C4CCC4)cncc3n2)c2cc(C3CCCO3)[nH]c2n1 (stereo not shown) [Example 2185, 5-Cyclobutyl-4-piperazin-1-yl-2-[2-(tetrahydro-furan-2-yl)-1H-pyrrolo[2,3-b]pyridin-4-yl]-pyrido[3,4-d]pyrimidine]
2 | 100 to 1000 nM | Fc1cnc(Nc2cc(-c3nc(NC4CCNCC4F)c4c(C5CC5)cncc4n3)ccn2)c(F)c1 (stereo not shown) [Example 2186, {5-Cyclopropyl-2-[2-(3,5-difluoro-pyridin-2-ylamino)-pyridin-4-yl]-pyrido[3,4-d]pyrimidin-4-yl}-(3-fluoro-piperidin-4-yl)-amine]
3 | 100 to 1000 nM | Fc1cc(F)c(Nc2cc(-c3nc(N4CCNCC4)c4c(C5CC5)cnc(C5CC5)c4n3)ccn2)nc1F [Example 2187, [4-(5,8-Dicyclopropyl-4-piperazin-1-yl-pyrido[3,4-d]pyrimidin-2-yl)-pyridin-2-yl]-(3,5,6-trifluoro-pyridin-2-yl)-amine]
4 | 100 to 1000 nM | Fc1cnc(Nc2cc(-c3nc(N4CCNCC4)c4c(C5CC5)cnc(C5CC5)c4n3)ccn2)c(F)c1 [Example 2188, [4-(5,8-Dicyclopropyl-4-piperazin-1-yl-pyrido[3,4-d]pyrimidin-2-yl)-pyridin-2-yl]-(3,5-difluoro-pyridin-2-yl)-amine]
5 | 100 to 1000 nM | Fc1cccc(F)c1Nc1cc(-c2nc(N3CCNCC3)c3c(C4CC4)cnc(C4CC4)c3n2)ccn1 [Example 2189, [4-(5,8-Dicyclopropyl-4-piperazin-1-yl-pyrido[3,4-d]pyrimidin-2-yl)-pyridin-2 yl]-(2,6-difluoro-phenyl)-amine]
6 | < 100 nM | CC(C)(C)c1cc2c(-c3nc(N4CCNCC4)c4c(C5CC5)cnc(C5CC5)c4n3)ccnc2[nH]1 [Example 2190, 2-(2-tert-Butyl-1H-pyrrolo[2,3-b]pyridin-4-yl)-5,8-dicyclopropyl-4-piperazin-1-yl-pyrido[3,4-d]pyrimidine]
7 | < 100 nM | Fc1ccc(Nc2cc(-c3nc(N4CCNCC4)c4c(C5CC5)cncc4n3)ccn2)nn1 [Example 2191, [4-(5-Cyclopropyl-4-piperazin-1-yl-pyrido[3,4-d]pyrimidin-2-yl)-pyridin-2-yl]-(6-fluoro-pyridazin-3-yl)-amine]
8 | < 100 nM | c1cc(-c2nc(N3CCNCC3)c3c(C4CC4)cncc3n2)c2cc(C3CCOC3)[nH]c2n1 (stereo not shown) [Example 2192, 5-Cyclopropyl-4-piperazin-1-yl-2-[2-(tetrahydro-furan-3-yl)-1H-pyrrolo[2,3-b]pyridin-4-yl]-pyrido[3,4-d]pyrimidine]
9 | < 100 nM | Fc1cccc(F)c1Nc1cc(-c2nc(N3CCNCC3)c3c(C(F)(F)F)cncc3n2)ccn1 [Example 2193, (2,6-Difluoro-phenyl)-[4-(4-piperazin-1-yl-5-trifluoromethyl-pyrido[3,4-d]pyrimidin-2-yl)-pyridin-2-yl]-amine]
10 | < 100 nM | Fc1cnc(Nc2cc(-c3nc(N4CCNCC4)c4c(C(F)(F)F)cncc4n3)ccn2)c(F)c1 [Example 2194, (3,5-Difluoro-pyridin-2-yl)-[4-(4-piperazin-1-yl-5-trifluoromethyl-pyrido[3,4-d]pyrimidin-2-yl)-pyridin-2-yl]-amine]
11 | < 100 nM | Fc1cc(F)c(Nc2cc(-c3nc(N4CCNCC4)c4c(C(F)(F)F)cncc4n3)ccn2)nc1F [Example 2195, [4-(4-Piperazin-1-yl-5-trifluoromethyl-pyrido[3,4-d]pyrimidin-2-yl)-pyridin-2-yl]-(3,5,6-trifluoro-pyridin-2-yl)-amine]
12 | < 100 nM | N[C@H]1CCCN(c2nc(-c3ccnc(Nc4ncc(F)cc4F)c3)nc3cncc(C4CC4)c23)C1 [Example 2198, {4-[4-(3-Amino-piperidin-1-yl)-5-cyclopropyl-pyrido[3,4-d]pyrimidin-2-yl]-pyridin-2-yl}-(3,5-difluoro-pyridin-2-yl)-amine]
13 | 100 to 1000 nM | c1cc(-c2nc(N3CCNCC3)c3c(C4CCC4)cncc3n2)c2c3c([nH]c2n1)CCCC3 [Example 2199, 4-(5-Cyclobutyl-4-piperazin-1-yl-pyrido[3,4-d]pyrimidin-2-yl)-6,7,8,9-tetrahydro-5H-pyrido[2,3-b]indole]
14 | < 100 nM | Clc1ccc2[nH]c3nccc(-c4nc(N5CCNCC5)c5c(C6CCC6)cncc5n4)c3c2c1 [Example 2200, 6-Chloro-4-(5-cyclobutyl-4-piperazin-1-yl-pyrido[3,4-d]pyrimidin-2-yl)-9H-pyrido[2,3-b]indole]
15 | < 100 nM | Clc1ccccc1-c1cc2c(-c3nc(N4CCNCC4)c4c(C5CC5)cncc4n3)ccnc2[nH]1 [Example 2202, 2-[2-(2-Chloro-phenyl)-1H-pyrrolo[2,3-b]pyridin-4-yl]-5-cyclopropyl-4-piperazin-1-yl-pyrido[3,4-d]pyrimidine]
16 | < 100 nM | Fc1ccccc1-c1cc2c(-c3nc(N4CCNCC4)c4c(C5CCC5)cncc4n3)ccnc2[nH]1 [Example 2203, 5-Cyclobutyl-2-[2-(2-fluoro-phenyl)-1H-pyrrolo[2,3-b]pyridin-4-yl]-4-piperazin-1-yl-pyrido[3,4-d]pyrimidine]
17 | < 100 nM | Clc1ccccc1-c1cc2c(-c3nc(N4CCNCC4)c4c(C5CCC5)cncc4n3)ccnc2[nH]1 [Example 2204, 2-[2-(2-Chloro-phenyl)-1H-pyrrolo[2,3-b]pyridin-4-yl]-5-cyclobutyl-4-piperazin-1-yl-pyrido[3,4-d]pyrimidine]
18 | < 100 nM | CNC1CCCN(c2nc(-c3ccnc(Nc4ncc(F)cc4F)c3)nc3cncc(C4CC4)c23)C1 (stereo not shown) [Example 2205, {4-[5-Cyclopropyl-4-(3-methylamino-piperidin-1-yl)-pyrido[3,4-d]pyrimidin-2-yl]-pyridin-2-yl}-(3,5-difluoro-pyridin-2-yl)-amine]
19 | 10000 to 40000 nM | CNc1ccc(Nc2nc(-c3ccnc(Nc4ncc(F)cc4F)c3)nc3cncc(C4CC4)c23)cc1 [Example 2206, N-{5-Cyclopropyl-2-[2-(3,5-difluoro-pyridin-2-ylamino)-pyridin-4-yl]-pyrido[3,4-d]pyrimidin-4-yl}-N′-methyl-benzene-1,4-diamine]
20 | < 100 nM | FC(F)(F)C1(c2cc3c(-c4nc(N5CCNCC5)c5c(C6CC6)cncc5n4)ccnc3[nH]2)CCC1 [Example 2207, 5-Cyclopropyl-4-piperazin-1-yl-2-[2-(1-trifluoromethyl-cyclobutyl)-1H-pyrrolo[2,3-b]pyridin-4-yl]-pyrido[3,4-d]pyrimidine]
21 | 100 to 1000 nM | c1cc(-c2nc(N3CCNCC3)c3c(C4CC4)cncc3n2)c2c3c([nH]c2n1)CCCC3 [Example 2208, 4-(5-Cyclopropyl-4-piperazin-1-yl-pyrido[3,4-d]pyrimidin-2-yl)-6,7,8,9-telrahydro-5H-pyrido[2,3-b]indole]
22 | < 100 nM | Cc1[nH]c2nccc(-c3nc(N4CCNCC4)c4c(C5CC5)cncc4n3)c2c1Cl [Example 2209, 2-(3-Chloro-2-methyl-1H-pyrrolo[2,3-b]pyridin-4-yl)-5-cyclopropyl-4-piperazin-1-yl-pyrido[3,4-d]pyrimidine]
23 | < 100 nM | c1cc(-c2nc(N3CCNCC3)c3c(C4CCC4)cncc3n2)cc(NC2CCOCC2)n1 [Example 2210, [4-(5-Cyclobutyl-4-piperazin-1-yl-pyrido[3,4-d]pyrimidin-2-yl)-pyridin-2-yl]-(tetrahydro-pyran-4-yl)-amine]
24 | 1000 to 10000 nM | CC1(C)C(=O)Nc2nccc(-c3nc(N4CCNCC4)c4c(C5CC5)cncc4n3)c21 [Example 2211, 4-(5-Cyclopropyl-4-piperazin-1-yl-pyrido[3,4-d]pyrimidin-2-yl)-3,3-dimethyl-1,3-dihydro-pyrrolo[2,3-b]pyridin-2-one]
25 | 100 to 1000 nM | (2,6-Difluoro-phenyl)-{2-[2-(2,6-difluoro-phenylamino)-pyridin-4-yl]-4-piperazin-1-yl-pyrido[3,4-d]pyrimidin-5-yl}-amine [Example 262]
26 | < 100 nM | (3-Chloro-2,6- difluoro-phenyl)- [4-(5-cyclopropyl- 4-piperazin-1-yl- pyrido[3,4- d]pyrimidin-2-yl)- pyridin-2-yl]- amine [Example 649]
27 | 100 to 1000 nM | (3S)-3-benzyl-1-[6- chloro-2-(pyridin-4- yl)pyrido[3,4-d]- pyrimidin-4- yl]piperazine [Example 14]
28 | 100 to 1000 nM | N-[(2S)-2-amino- 3-phenylpropyl]- 8-(furan-3-yl)-2- (pyridin-4-yl)- pyrido[3,4-d]- pyrimidin-4- amine [Example 113]
29 | < 100 nM | [4-(5-Cyclopropyl- 4-piperazin-1-yl- pyrido[3,4- d]pyrimidin-2-yl)- pyridin-2-yl]-(2,3- dichloro-phenyl)- amine [Example 543]
30 | 10000 to 40000 nM | [4-(5-Cyclopropyl- 4-piperazin-1-yl- pyrido[3,4- d]pyrimidin-2-yl)- pyridin-2-yl]-(4- trifluoromethyl- phenyl)-amine [Example 596]

Row | Compound | IC50
31 | CN(c1nc(-c2ccnc(Nc3ncc(F)cc3F)c2)nc2cncc(C3CC3)c12)C1CCNCC1(C)C (stereo not shown) [Example 2196, {5-Cyclopropyl-2-[2-(3,5-difluoro-pyridin-2-ylamino)-pyridin-4-yl]-pyrido[3,4-d]pyrimidin-4-yl}-(3,3-dimethyl-piperidin-4-yl)-methyl-amine] | < 100 nM
